The target of series [1] is T1, MRGPRX2 (Homo sapiens, UniProt Q96LB1).
T1 sequence (Q96LB1 1-330): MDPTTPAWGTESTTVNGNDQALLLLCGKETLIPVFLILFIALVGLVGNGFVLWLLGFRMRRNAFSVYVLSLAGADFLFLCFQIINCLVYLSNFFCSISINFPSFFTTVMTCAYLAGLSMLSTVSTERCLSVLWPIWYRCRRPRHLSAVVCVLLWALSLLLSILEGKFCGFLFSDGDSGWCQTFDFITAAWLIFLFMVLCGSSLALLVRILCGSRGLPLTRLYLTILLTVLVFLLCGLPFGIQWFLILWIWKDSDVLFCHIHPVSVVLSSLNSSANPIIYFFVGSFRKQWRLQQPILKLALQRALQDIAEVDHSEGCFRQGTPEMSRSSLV
Nature of the series: Calcium imaging of peritoneal mast cells isolated from human MRGPRX2 KI mice. The settings on record: 100 nM antagonist; Cpd 48/80 1 μg/mL; n ≥ 4. The format is cell-based. The method, then:
Mouse peritoneal mast cells were purified and imaged as previously described ([4]). Mast cells were resuspended at 5 × 10^5 to 1 × 10^6 cells/mL in DMEM with 10% FBS and recombinant mouse SCF (25 ng/mL) and plated onto glass cover slips coated with fibronectin (30 µg/mL). For imaging, after 2 h of incubation at 37°C, 5% CO2, mast cells were loaded with Fluo-4 along with 0.02% Pluronic F-127 for 30 min at room temperature, washed three times in calcium imaging buffer (CIB), and used immediately for imaging. Cells were used within 2 h of loading. Cells were identified as responding if the [Ca^2+] rose by at least 50% for >10 s.
Figure 6 Oral treatment with the potent and selective MRGPRX2 antagonist, Compound B (3 mg/kg), blocks Cpd 48/80–induced itch response using human MRGPRX2 knock-in mice. […] Average ± SD blood-free concentration of antagonist measured at end of “itch” observation period was 19 ± 16 nM Compound B.

In series [2] the target is T2, D2 receptor (DRD2) (Homo sapiens, UniProt P14416).
T2 construct: expressed in transfected cells
T2 sequence (P14416 whole entry): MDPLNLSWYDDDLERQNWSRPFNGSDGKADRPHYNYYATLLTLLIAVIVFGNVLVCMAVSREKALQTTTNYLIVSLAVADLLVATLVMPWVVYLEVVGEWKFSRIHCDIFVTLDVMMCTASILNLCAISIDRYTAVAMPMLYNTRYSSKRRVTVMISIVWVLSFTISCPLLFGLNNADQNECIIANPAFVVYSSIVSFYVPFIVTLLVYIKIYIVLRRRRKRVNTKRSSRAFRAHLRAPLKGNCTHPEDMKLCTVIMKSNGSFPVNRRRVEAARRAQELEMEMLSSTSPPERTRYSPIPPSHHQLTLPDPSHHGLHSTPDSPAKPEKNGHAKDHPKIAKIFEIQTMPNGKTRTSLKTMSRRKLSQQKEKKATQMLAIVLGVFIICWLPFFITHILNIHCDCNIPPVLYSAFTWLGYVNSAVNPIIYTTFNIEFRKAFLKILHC
Kind of series: GPCR selectivity cellular assay. The format is cell-based. As for the experimental part: (§1) tagonists, with little activity detected on other GPCRs. Antagonist and/or agonist activities of the two compounds were determined in cellular assays for 20 human G-protein coupled receptors (GPCR) beside MRGPRX2. Recombinant over-expression systems in mammalian cells were used for all assays listed in this table. […]
(§2) reported as ‘>’ the highest compound concentration allowed in that assay.
(§3) GPCR Target Name Gene symbol Mode of Activity Compound-A Compound-B […]
(§4) Agonist Activity (EC50 ) or Antagonist Activity (IC50 ), nM […]

The target in series [3] is T3, H3 receptor (HRH3) (Homo sapiens, UniProt Q9Y5N1).
T3 construct: expressed in transfected cells
T3 sequence (Q9Y5N1 whole entry): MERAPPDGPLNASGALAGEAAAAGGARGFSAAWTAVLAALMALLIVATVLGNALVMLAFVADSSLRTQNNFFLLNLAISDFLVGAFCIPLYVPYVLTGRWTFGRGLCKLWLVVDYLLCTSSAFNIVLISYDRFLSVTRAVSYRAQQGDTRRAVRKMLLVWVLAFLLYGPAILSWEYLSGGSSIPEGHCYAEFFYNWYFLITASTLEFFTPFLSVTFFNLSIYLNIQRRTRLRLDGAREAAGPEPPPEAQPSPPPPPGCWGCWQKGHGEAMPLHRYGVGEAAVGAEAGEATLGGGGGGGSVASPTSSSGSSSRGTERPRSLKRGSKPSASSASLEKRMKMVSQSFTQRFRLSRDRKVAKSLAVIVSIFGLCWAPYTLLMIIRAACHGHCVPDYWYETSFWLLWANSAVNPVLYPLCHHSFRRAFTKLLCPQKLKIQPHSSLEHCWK
Kind of series: GPCR selectivity cellular assay. The series is classed as cell-based. Conditions: Antagonism; read-out: Antagonist Activity (IC50). The method, then:
as §1, §2, §3, §4

Series [4] has as its target T4, a2C-Adrenoreceptor (ADRA2C) (Homo sapiens, UniProt P18825).
T4 construct: expressed in transfected cells
Kind of series: GPCR selectivity cellular assay. The series is classed as cell-based. Conditions: Agonism; read-out: Agonist Activity (EC50). As for the experimental part: as §1, §2, §3, §4

For series [5], the target named is µ-Receptor (OPRM1) (Homo sapiens, UniProt P35372). Kind of series: GPCR selectivity cellular assay. The series is classed as cell-based. The settings on record: Agonism; read-out: Agonist Activity (EC50). As for the experimental part:
as §1, §2, §3, §4

The target of series [6] is T5, ß2-Adrenoreceptor (ADRB2) (Homo sapiens, UniProt P07550).
T5 construct: expressed in transfected cells
T5 sequence (P07550 whole entry): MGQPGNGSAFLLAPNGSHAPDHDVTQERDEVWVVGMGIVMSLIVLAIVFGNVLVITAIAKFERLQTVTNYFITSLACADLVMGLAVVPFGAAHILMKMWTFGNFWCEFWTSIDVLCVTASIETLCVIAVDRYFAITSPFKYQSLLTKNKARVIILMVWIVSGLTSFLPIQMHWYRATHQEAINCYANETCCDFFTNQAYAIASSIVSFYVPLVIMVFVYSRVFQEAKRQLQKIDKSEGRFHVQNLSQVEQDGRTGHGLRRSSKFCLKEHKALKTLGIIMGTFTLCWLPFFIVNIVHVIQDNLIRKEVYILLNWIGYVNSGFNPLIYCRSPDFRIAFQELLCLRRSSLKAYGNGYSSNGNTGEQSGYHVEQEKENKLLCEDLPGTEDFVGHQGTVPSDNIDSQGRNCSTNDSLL
Kind of series: GPCR selectivity cellular assay. The series is classed as cell-based. The method, then:
as §1, §2, §3, §4

The nature of series [7]: Pharmacokinetic profile.
Series [8] deals with T1, MRGPRX2. Kind of series: Substance P-stimulated tryptase release from freshly isolated human skin mast cells. The series is classed as cell-based. Also on record: human mast cells expressing endogenous MRGPRX2; endogenous in cells; […]. The settings on record: read-out: pIC50, inhibition of Substance P-stimulated tryptase release (converted). As for the experimental part:
Tissue was processed, removing adipose and cutting into small segments. Epidermis was removed after incubation with dispase II (2 mg/mL; Sigma-Aldrich) [100 mL/50-cm^2 tissue, base buffer; Dulbecco’s Phosphate-buffered Saline (D-PBS) (Gibco, supplemented with Ca^2+/Mg^2+), amphotericin B (2.5 μg/mL), penicillin (100 units/mL)/streptomycin (100 μg/mL) (Sigma-Aldrich)] for 37°C for 2–4 h followed by 4°C overnight. The remaining dermis was homogenized into a uniform mass and digested with an enzyme cocktail [collagenase IV (10 mg/mL; Gibco), hyaluronidase I-S (5 mg/mL; Sigma), DNAse I (10 μg/ml; Roche)] in base buffer (supplemented with 10% FBS) in a shaking incubator at 37°C for 90 min. […]
For human primary skin mast cell degranulation experiments, both β-hexosaminidase and tryptase were measured. […] Plates were centrifuged, with supernatants collected and lysates generated [cell pellets lysed in 0.1% Tx100 (Sigma), in assay buffer], and then stored at −80°C for later quantification. β-Hexosaminidase activity assay was performed as already described. For tryptase quantification: The amount of total tryptase (α and β tryptase) was quantified using the ImmunoCap Tryptase Test ran on either a Phadia 100 or 250 Immunoassay Analyzer as per the manufacturer’s protocol. […]

Where [9] appears, read: Agonism, read-out: Agonist Activity (EC50).
Where [10] appears, read: Antagonism, read-out: Antagonist Activity (IC50).

Structures are written as SMILES.

Chain of µ-Receptor (OPRM1) (P35372 whole entry): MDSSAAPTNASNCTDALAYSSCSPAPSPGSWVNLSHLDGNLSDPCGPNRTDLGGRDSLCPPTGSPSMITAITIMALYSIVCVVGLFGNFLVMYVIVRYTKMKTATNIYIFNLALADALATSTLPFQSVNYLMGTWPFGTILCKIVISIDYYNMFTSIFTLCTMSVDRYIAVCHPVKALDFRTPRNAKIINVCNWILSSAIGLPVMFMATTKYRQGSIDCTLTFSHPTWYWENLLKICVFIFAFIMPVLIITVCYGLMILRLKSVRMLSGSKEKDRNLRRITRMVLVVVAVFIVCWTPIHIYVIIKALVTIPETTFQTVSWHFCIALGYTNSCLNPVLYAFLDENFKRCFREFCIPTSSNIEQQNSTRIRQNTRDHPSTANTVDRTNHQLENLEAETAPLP
T4 sequence (P18825 whole entry): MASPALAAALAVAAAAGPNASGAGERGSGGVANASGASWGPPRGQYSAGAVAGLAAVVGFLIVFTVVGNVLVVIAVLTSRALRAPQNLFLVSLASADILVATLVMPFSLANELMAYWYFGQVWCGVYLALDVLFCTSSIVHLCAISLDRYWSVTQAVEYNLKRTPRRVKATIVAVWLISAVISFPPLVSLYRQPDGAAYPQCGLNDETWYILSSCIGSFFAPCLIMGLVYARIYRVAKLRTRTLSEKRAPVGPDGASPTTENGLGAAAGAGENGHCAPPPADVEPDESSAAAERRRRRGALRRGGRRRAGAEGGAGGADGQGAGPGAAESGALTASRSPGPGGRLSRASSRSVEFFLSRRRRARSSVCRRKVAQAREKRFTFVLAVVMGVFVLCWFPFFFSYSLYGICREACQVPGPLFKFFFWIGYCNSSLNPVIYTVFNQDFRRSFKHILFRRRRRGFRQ

Consider `C[C@@H](C(=O)Nc1cnc(Oc2ccc(F)cc2F)cn1)N1CCC(F)(F)[C@@H](c2cc[n+]([O-])cc2)C1` [Compound B], for which the “Effect on Cpd 48/80-mediated activation of peritoneal mast cells” value in series [1] was “completely antagonize”. Besides, the EC50 in series [2] (setting [9]), in series [4], in series [5] and in series [6] (setting [9]) was over 100 µM throughout. The IC50 in series [2] (setting [10]) is over 100 µM; in series [3], over 50 µM; in series [6] (setting [10]) it was over 100 µM; in series [8], 0.000417 µM. Besides, in series [7], the “In vivo PK profile” value is given as “good in vivo PK profile”. The Oral bioavailability entry in series [7] (in vivo, po) was “good oral bioavailability”.

These data come from paper PMC11527646, “Pharmacological blockade of the mast cell MRGPRX2 receptor supports investigation of its relevance in skin disorders” (Frontiers in Immunology, 2024).
